# Experiment: Human HepG2 cell viability assay in 384 well format
# Assay type: toxicity, cell-based
# Design: dose 125 nL, time 70.5 hour; cytotoxicity at 70.5 h: concentration not given beside the values
# Conditions: HepG2 cells, read-out: Inhibition
row,Compound,cytotoxicity at 70.5 h
1,c1ccc(C[C@H]2CN(Cc3nccs3)CC[C@H]2OCC2CC2)cc1,-11.5%
2,CN(Cc1ccc(F)cc1)[C@@H]1CN(C(=O)c2cccs2)C[C@H]1O,-17.9%
3,Cc1nc(C)n(CC2CCCN2Cc2nc3ccccc3nc2C)n1 (configuration not stated),3.65%
4,COc1ccc(CN2CCCCC2c2n[nH]cc2-c2cc(C)no2)cc1 (configuration not stated),11%
5,Cc1nn(C)c2c(=O)n(CC(=O)NCc3ccc(N(C)C)cc3)ccc12,-0.296%
6,Cc1ccc(Oc2ncccc2CNC2CCCCC2)cn1,-5.62%
7,CC(C)NC(=O)N1CCCC2(CCN(c3ccsc3)C2=O)C1 (configuration not stated),-12.5%
8,Cc1cnn(CC2CCCN2CC(=O)N(C)Cc2cnn(C)c2)c1 (configuration not stated),-1.69%
9,COc1cccc(C(=O)NC(C)CCN2CCOCC2)c1F (configuration not stated),-5.81%
10,CC(C)c1nn(C)c(N(C)C)c1CNCc1cccc(CN(C)C)c1,0.875%
11,CCS(=O)(=O)NCC1Cn2nnc(-c3ccccc3)c2CO1 (configuration not stated),-1.57%
12,Cn1nc2c(cc1=O)CN(CCN1CCCC1=O)CC2,-1.09%
13,COc1ccc2c(c1)OCC(CNC(=O)c1cc(C(C)C)on1)C2 (configuration not stated),-20.5%
14,CN(CC(=O)N(C)C1CCN(CC2CCOC2)CC1)c1ccccc1 (configuration not stated),-4.84%
15,CC1CCc2nc(O)c(C(=O)NCc3cccc(F)c3)cc2C1 (configuration not stated),-3.12%
16,Cc1nnc([C@@]23CCO[C@@H]2CCN(S(=O)(=O)c2ccccc2)C3)o1,-7.57%
17,CCN(Cc1ccc(Cl)c(Cl)c1)C(=O)CCn1cncn1,-10.7%
18,COCCN(Cc1sccc1C)C(=O)c1c(O)cccc1F,-5.43%
19,CN(C)CC(=O)N1CCO[C@@H]2CC(COCc3ccncc3)C[C@H]21 (some centres not stated),-8%

row,Compound,cytotoxicity at 70.5 h
1,CCCc1n[nH]c(=O)n1Cc1ccc(OC)cc1,12.2%
2,CC(C)(C)c1coc([C@@H]2COCCN2Cc2csnn2)n1,-1.66%
3,COCCC(=O)N1CCC2(COCc3c(C)nc(NCC4CC4)nc32)C1 (configuration not stated),-4.97%
4,CNc1ncc2c(n1)CN(CCc1ccc(F)cc1)C2=O,-10.4%
5,Cc1cccc(CN2C(=O)C[C@H]3[C@@H]2CCN3Cc2ccco2)n1,-11.7%
6,O=C(NCCNc1cc(N2CCCC2)ncn1)c1cnccn1,-7.66%
7,c1ccc(-c2cnc(CNC3CCCN(c4cccnn4)C3)o2)cc1 (configuration not stated),-4.5%
8,CC(CO)NC(=O)Nc1ccc(CC#N)cc1 (configuration not stated),-4.42%
9,NC(=O)c1ccc(NC(=O)CCN2CCCC(N3CCCC3)C2)cc1 (configuration not stated),12.4%
10,Cc1cc(N2CCC(Cc3ccncc3)C2)ncn1 (configuration not stated),-3.38%
11,COc1cccc(CN2CC[C@H]3[C@@H](C2)[C@H](c2ccsc2)CN3C(C)=O)c1,28.6%
12,CCOC(C)c1nc(CN2CCN(Cc3cccnc3)CC2)cs1 (configuration not stated),-4.18%
13,Cc1cc(C)n(C2CN(CC(=O)N(C)Cc3ccco3)C2)n1,-6.63%
14,COc1ccc(S(=O)(=O)N[C@H]2CN(C(C)=O)C[C@@H]2C(C)C)cc1F,-12.5%
15,CCN(CC)CCCN1CCN(c2nc(C)cnc2C)CC1,-7.19%
16,CC(C)CCc1n[nH]c(C(=O)O)c1Br,-7.1%
17,O=C(NCCNCc1cccc2c1OCCCO2)C1CCCC1,14.5%
18,CC(C)[C@H]1CN(CCS(C)(=O)=O)C[C@@H]1NC(=O)c1ccc(=O)[nH]c1,-3.99%
19,CN1C(=O)C2(CC(=O)Nc3[nH]ncc32)c2ccc(F)cc21 (configuration not stated),-15.5%

row,Compound,cytotoxicity at 70.5 h
1,Cc1cc(CN2CC[C@H]3OCC[C@@]3(C(=O)N3CCOCC3)C2)no1,-5%
2,O=S1(=O)CCC(N(Cc2nc3ccccc3o2)Cc2cccs2)C1 (configuration not stated),19.2%
3,CCc1noc(C)c1C(=O)NCCCC(CC)(CC)C1OCCO1,-5.2%
4,Cc1nn(CC(C)C)c(N(C)C)c1CNCc1ccnn1C,28.6%
5,O=C([C@H]1CC[C@@H]2[C@@H](CCN2Cc2nccs2)O1)N1CCCCO1,-5.06%
6,CCS(=O)(=O)c1ccc2oc([C@H]3CCN(Cc4ccccn4)C3)nc2c1,2.52%
7,CCc1nc(CC(=O)N2CCCC2c2c(C)nn(C)c2OC)cs1 (configuration not stated),-8.39%
8,CN(C)C(=O)C1CN(c2ncccn2)CCN1C (configuration not stated),-1.97%
9,CCCc1n[nH]c(C2CN(C(=O)c3cccc4[nH]ncc34)CCO2)n1 (configuration not stated),-3.81%
10,CNC(=O)c1cc2c(nc1N(C)C)CCN(c1ncc(F)cn1)CC2,-13.5%
11,CC(C)c1nsc(N2CCS(=O)(=O)CC2)n1,-22.3%
12,NC(=O)c1c(-c2ccc(Cl)cc2Cl)csc1NC(=O)CCC(=O)O,20.5%
13,CCc1ccc(NC(=O)CCN2CC(n3nc(C)cc3C)C2)cc1,-1.14%
14,CNC(=O)CN1CC[C@H]2CN(C(=O)c3cccc(C)c3)C[C@H]2C1,-2.46%
15,Cc1noc([C@@H]2CC[C@@H]3[C@@H](CCN3S(=O)(=O)c3cccnc3)O2)n1,-4.36%
16,Cn1ccnc1C(=O)N[C@@H]1CN(Cc2cccs2)[C@@H]2CCCO[C@@H]21,-14.1%
17,Cc1cc(C(=O)N2CCCC2CN2CCCC2)no1 (configuration not stated),12.9%
18,O=C(Cc1cccnc1)N1CCC2(CC1)CCN(C1CCOCC1)C2,-3.79%
19,CCn1ccnc1CN1CCC(CNC(=O)c2ccc(C)nc2)C1 (configuration not stated),-9.04%
